Results reported in patent US7598419B2, “Compounds for modulating cell proliferation” (HSC Research and Development Limited Partnership, priority 2004, dated 2009).

How the values were obtained:
[1] = tested on: cells of the myeloid lineage; settings: in vitro, ex vivo and in vivo; cited from earlier work
[2] = tested on: a variety of cancer cells; experiment: Growth of cancer cells in culture (summary over cell types); format: cell-based; settings: for effectiveness against a variety of cell types: Acute Lymphoblastic Leukemia, Philadelphia positive Leukemia, Acute Myeloid Leukemia
[3] = tested on: Philadelphia positive ALL, AML and lymphoma; experiment: High dose ex vivo / in vitro purging assays (summary); format: cell-based
[4] = tested on: normal bone marrow cells; experiment: In vitro purging of normal bone marrow; format: cell-based, human; settings: 50 μM, seven hours exposure; FIG. 21
Experimental: Heparinized bone marrow cells were layered over Percoll (1.077 gm/ml) (Pharmacia Fine Chemical, Piscataway N.J.) and centrifuged at 400 g at 4° C. for 10 minutes to remove neutrophils and RBCs.
(§1) For the purging process, the cells were resuspended at 1×10^6/ml in complete medium with or without 50 μM CR4. The cells were incubated with the CR4 for two and a half hours at 37° C., 5% CO2. At the end of this period the cells were thoroughly washed in medium to remove CR4 and then cultured at 2×10^5 cells/ml in IMDM (OCI, Toronto) containing 0.9% (vol/vol) methylcellulose supplemented with 30% FCS (Cansera Rexdale, ON.) or normal human plasma, a cocktail of cytokines containing G-CSF (10 ng/ml, Amgen), IL-3 (40 U/ml, Immunex), MGF (50 ng/ml, Immunex), Erythropoietin (2 u/ml, Epprex) or TPO (10 ng/ml, Amgen) and 5×10^−5M β-2-mercaptoethanol. The culture mixture was plated in 1 ml volumes into 35 mm petri dishes and incubated at 37° C., 5% CO2 in a humidified atmosphere. All cultures were evaluated at 14 days for the number of BFU-E colonies (defined as aggregates of more than 500 hemaglobinized cells or, 3 or more erythroid subcolonies), CFU-C colonies (defined as granulocyte or monocyte-macrophage cells or both) and CFU-GEMM colonies (a mixed population comprising of all elements).
as §1, with “μM CR11.” for “μM CR4.”, “the tryrphostin” for “the CR4”, “for seven” for “for two and a half”, “remove CR11” for “remove CR4”, “methylcellulose supplementd” for “methylcellulose supplemented”, “500 hemoglobinized” for “500 hemaglobinized”

[5] = tested on: Philadelphia positive acute lymphoblastic leukemia cells; experiment: In vitro purging of Philadelphia positive ALL with CR11; format: cell-based, human; settings: 50 μM, 7 hours exposure; FIG. 22
Experimental: For the purging assay, the cells were resuspended in complete medium with or without CR11 as indicated and incubated at 37° C., 5% CO2 for 0-7 hours. Cells were then washed thoroughly with medium to remove the CR11, resuspended and plated in 1 ml volumes, in the absence of exogenous growth factors, into 35 mm petri dishes (Nunc, Gibco) containing alpha MEM (Gibco) plus 20% FCS (Cansera Rexdale, ON.) in 0.9% (vol/vol) methylcellulose (Fluka, Switzerland). Cultures were set at 37° C., 5% CO2 in a humidified atmosphere. Colonies consisting of more than 20 cells were counted at 9 days or earlier using an inverted microscope.

[6] = tested on: normal bone marrow cells; experiment: CFU-GEMM assay: normal bone marrow differentiation in culture; format: cell-based, human
Experimental: (§2) The CFU-GEMM assay was performed according to Fauser and Messner (1978, Blood, 52(6) 143-8) and Messner and Fausser (1980, Blut, 41(5) 327-33) with some variations. In brief, heparinized bone marrow cells were layered over Percoll (1.077 gm/ml) (Pharmacia Fine Chemical, Piscataway N.J.) and centrifuged at 400 g at 4° C. for 10 minutes to remove neutrophils and RBCs. The fractionated BM cells at 2×10^5 cells/ml were cultured in IMDM (OCI, Toronto) containing 0.9% (vol/vol) methylcellulose supplementd with 30% FCS (Cansera Rexdale, ON.) or normal human plasma, a cocktail of cytokines containing G-CSF (10 ng/ml, Amgen), IL-3 (40 U/ml, Immunex), MGF (50 ng/ml, Immunex), Erythropoietin (2 u/ml, Epprex) or TPO (10 ng/ml, Amgen), 5×10^−5M β-2-mercaptoethanol and the specified concentration of CR4. The culture mixture was plated in 1 ml volumes into 35 mm petri dishes and incubated at 37° C., 5% CO2 in a humidified atmosphere. All cultures were evaluated at 14 days for the number of BFU-E colonies (defined as aggregates of more than 500 hemoglobinized cells or, 3 or more erythroid subcolonies), CFU-GM colonies (defined as granulocyte or monocyte-macrophage cells or both), CFU-Meg colonies (comprising 4 or more megakaryocytes) and CFU-GEMM colonies (a mixed population comprising of all elements).
as §2, with “1243-8)” for “143-8)”, “concentrations” for “concentration”, “CR19.” for “CR4.”, “hemaglobinized” for “hemoglobinized”, “subcolonies) and CFU-C” for “subcolonies), CFU-GM”, “both).” for “both), CFU-Meg colonies (comprising 4 or more megakaryocytes) and CFU-GEMM colonies (a mixed population comprising of all elements).”
as §2, with “1243-8)” for “143-8)”, “variations (British Journal of Haematology, 1992, 80, p 40-48).” for “variations.”, “test compound.” for “CR4.”, “CO2,” for “CO2”, “subcolonies) and CFU-C” for “subcolonies), CFU-GM”, “both).” for “both), CFU-Meg colonies (comprising 4 or more megakaryocytes) and CFU-GEMM colonies (a mixed population comprising of all elements).”

[7] = tested on: Philadelphia positive acute lymphoblastic leukemia (Ph+ ALL) cells; experiment: Colony assay of Philadelphia positive ALL cells in methylcellulose culture; format: cell-based, human
Experimental: (§3) Ph+ ALL cells were plated in 1 ml volumes, in the absence of exogenous growth factors, into 35 mm petri dishes (Nunc, Gibco) containing alpha MEM (Gibco) plus 10-20% FCS (Cansera Rexdale, ON.) in 0.9% (vol/vol) methylcellulose (Fluka, Switzerland) with the indicated concentrations of CR4. Cultures were set at 37° C., 5% CO2 in a humidified atmosphere. Colonies consisting of more than 20 cells were counted at 12 days or earlier using an inverted microscope.
as §3, with “ALL” for “Ph+ ALL”, “20%” for “10-20%”, “and” for “with”, “compound.” for “CR4.”
as §3, with “ALL” for “Ph+ ALL”, “20%” for “10-20%”, “and” for “with”, “CR24.” for “CR4.”, “9” for “12”
as §3, with “ALL” for “Ph+ ALL”, “20%” for “10-20%”, “and” for “with”, “CR19.” for “CR4.”, “9” for “12”

[8] = low nanomolar doses, long term exposure

COc1cc(/C=C/C=C(C#N)C#N)cc(OC)c1O [CR7, (E,E)-2-cyano-3-(3,5-dimethoxy-4-hydroxystyryl)acrylonitrile]
promotion of myelopoiesis [1]: capable of promoting myelopoiesis

COc1cc(/C=C/C=C(\C#N)C(=O)NCCc2ccccc2)cc(OC)c1O [CR8, (E,E)-2-(Phenylethylaminocarbonyl)-3-(3,5-dimethoxy-4-hydroxystyryl)acrylonitrile]
promotion of myelopoiesis [1]: capable of promoting myelopoiesis

COc1cc(/C=C/C=C(\C#N)C(=O)NCc2ccc(O)c(O)c2)cc(OC)c1O [CR11, (E,E)-2-(3,4-Dihydroxybenzylaminocarbonyl)-3-(3,5-dimethoxy-4-hydroxystyryl)acrylonitrile]
effectiveness against a variety of cell types [2]: highly effective
effectiveness as ex vivo purging agents [3]: effective
promotion of myelopoiesis [1]: capable of promoting myelopoiesis
BFU-E, CFU-GEMM and CFU-C colonies after purging [4]: all normal
colony formation of normal bone marrow after purging [4]: did not result in any significant inhibition
killing of Ph+ ALL cells after purging [5]: complete killing

N#C/C(=C\C=C\c1ccccc1)C(=O)NCc1ccc(O)c(O)c1 [CR19, (E,E)-2-(3,4 Dihydroxybenzylaminocarbonyl)-3-styrylacrylonitrile]
effectiveness against a variety of cell types [2]: highly effective
toxicity to cancer cells [2, 8]: highly toxic
CFU-C colony formation ([6]; 2.5 μM, 14 days, FIG. 12): boosted
development of BFU-E colonies ([6]; 2.5 μM, 14 days, FIG. 12): significant inhibition
BFU-E colonies ([6]; 5 μM, 14 days, FIG. 12): virtually absent
CFU-C colony formation ([6]; 5 μM, 14 days, FIG. 12): stimulatory effect disappeared
normal cell growth and differentiation [6, 8]: unaffected
promotion of myelopoiesis [1]: capable of promoting myelopoiesis

N#C/C(=C\C=C\c1ccc(O)c(O)c1)C(=O)NCc1ccc(O)c(O)c1 [CR21, (E,E)-2-(3,4 Dihydroxybenzylaminocarbonyl)-3-(3,4-dihydroxystyryl)acrylonitrile]
BFU-E colony formation ([6]; 20 μM, 14 days, FIG. 13): caused inhibition
concentrations displaying inhibition of Ph+ ALL cell growth ([7]; Example 42, FIG. 8, colonies at 12 days): 5 µM

COc1cc(/C=C/C=C(\C#N)C(=O)NCCO)cc(OC)c1O [CR24, (E,E)-2-(β-Ethanolaminocarbonyl)-3-(3,5-dimethoxy-4-hydroxystyryl)acrylonitrile]
bone marrow colony formation ([6]; 10 or 20 μM, 14 days, FIG. 13): minimal inhibition
lowest concentration effective against Ph+ ALL cells ([7]; colonies at 9 days, FIG. 10): 0.5 µM

COc1cc(/C=C/C=C(\C#N)C(=O)NCc2ccccc2)ccc1O [CR56, (E,E) 2-(benzylaminocarbonyl)-3-(3-methoxy-4-hydroxystyryl)acrylonitrile]
promotion of myelopoiesis [1]: capable of promoting myelopoiesis
